From patent US20110009343A1, “MODULATORS OF AMYLOID AGGREGATION” (Praecis Pharmaceuticals, Inc., priority 1995, published 2011) come the findings set out here.

In the assay the target is T1, Aβ1-40 (Homo sapiens, UniProt P05067).
T1 construct: (β-AP1-40) was obtained commercially from Bachem (Torrance, Calif.); purchased Bachem (Torrance, Calif.)
Kind of assay: Nucleation assay (turbidity, A405 nm).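 Also: synthetic Aβ monomer polymerization followed by turbidity in 96-well plates with continuous shaking, read every 15 minutes over 5 hours, compared against wells lacking test compound.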 Type of assay: biochemical.

Where [1] appears, read: Table V, 100 mole % inhibitor relative to Aβ1-40.
Where [2] appears, read: Table V, 100 mole % inhibitor, read-out: % Inucl'n (percent reduction in maximum observed turbidity).
Setting [3] is: Table II, 100 mole % vs 50 μM Aβ1-40.

Marks after values point to notes of the source that are not given here. Numbered stars: 1 amine (or outer) side, 2 acyl side, 3 side chain; on linkers, the order of the positions; unused ones are H or OH. Square brackets hold non-standard residues; d marks the D form. Peptide text beside a SMILES is read from it. * marks the point of attachment. Cholyl = C[C@H](CCC(=O)*)[C@H]1CC[C@H]2[C@@H]3[C@H](O)C[C@@H]4C[C@H](O)CC[C@]4(C)[C@H]3C[C@H](O)[C@]12C; X2 = O=C(C1(O)C[C@H](O)[C@@H](N[*:1])[C@H]([C@H](O)[C@H](O)CO)O1)[*:2]; X3 = N=C1N[C@H]2[C@H](CS[C@H]2CCCCC(=O)*)N1

T1 sequence (P05067 672-711): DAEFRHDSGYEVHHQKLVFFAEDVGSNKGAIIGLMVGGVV

As for `CC(C)C[C@H](NC(=O)[C@H](CCCCN)NC(=O)CC[C@@H](C)[C@H]1CC[C@H]2[C@@H]3[C@H](O)C[C@@H]4C[C@H](O)CC[C@]4(C)[C@H]3C[C@H](O)[C@]12C)C(=O)N[C@H](C(=O)N[C@@H](Cc1ccccc1)C(=O)N[C@@H](Cc1ccccc1)C(=O)O)[C@@H](C)O` [PPI-369] (Cholyl-KLTFF-OH), the “Fold Increase in Lag Time” value (Table IV, 100 mole %) is reported as around 1 fold. Under setting [1], the “ΔLag (ratio of lag time with test compound to lag time of control)” value is 1.1. In addition, the inhibition at 100 mol % under setting [2] is -16%. Take `CC[C@H](C)[C@H](NC(=O)[C@H](C)NC(=O)CNC(=O)[C@H](CCCCN)NC(=O)[C@H](CC(N)=O)NC(=O)[C@H](CO)NC(=O)CNC(=O)[C@@H](NC(=O)[C@H](CC(=O)O)NC(=O)[C@H](CCC(=O)O)NC(=O)[C@H](C)NC(=O)CCCC[C@@H]1SC[C@@H]2NC(=N)N[C@@H]21)C(C)C)C(=O)N[C@H](C(=O)NCC(=O)N[C@@H](CC(C)C)C(=O)N[C@@H](CCSC)C(=O)O)[C@@H](C)CC` [PPI-282] (X3-AEDVGSNKGAIIGLM-OH): the “Fold Increase in Lag Time” value under setting [3] is given as around 1 fold. Turning to `C[C@H](CCC(=O)N[C@@H](Cc1c[nH]cn1)C(=O)N[C@@H](CC(=O)O)C(=O)N[C@@H](CO)C(=O)NCC(=O)N[C@@H](Cc1ccc(O)cc1)C(N)=O)[C@H]1CC[C@H]2[C@@H]3[C@H](O)C[C@@H]4C[C@H](O)CC[C@]4(C)[C@H]3C[C@H](O)[C@]12C` [PPI-339] (Cholyl-HDSGY-NH2), the “Fold Increase in Lag Time” value (Table III, 33 mole %) is 1.1 fold. Also, the “ΔLag (ratio of lag time with test compound to lag time of control)” value under setting [1] is reported as 1.1. For the same molecule, the inhibition at 100 mol % under setting [2] is -18%. Consider `CC[C@H](C)[C@H](NC(=O)[C@H](C)NC(=O)CNC(=O)[C@H](CCCCN)NC(=O)[C@H](CC(N)=O)NC(=O)[C@H](CO)NC(=O)CNC(=O)[C@@H](NC(=O)[C@H](CC(=O)O)NC(=O)[C@H](CCC(=O)O)NC(=O)[C@H](C)NC(=O)C1(O)C[C@H](O)[C@@H](NC(C)=O)[C@H]([C@H](O)[C@H](O)CO)O1)C(C)C)C(=O)N[C@H](C(=O)NCC(=O)N[C@@H](CC(C)C)C(=O)N[C@@H](CCSC)C(=O)O)[C@@H](C)CC` (stereo partly shown) [PPI-281] (Ac-[X2]AEDVGSNKGAIIGLM-OH), for which the “Fold Increase in Lag Time” value under setting [3] is recorded as around 1 fold.

For the molecule `CC(C)C[C@H](N)C(=O)N[C@H](C(=O)N[C@@H](Cc1ccccc1)C(=O)N[C@@H](Cc1ccccc1)C(=O)N[C@@H](C)C(=O)O)C(C)C` [PPI-386], the “% Inucl'n (percent reduction in maximum observed turbidity)” value (Table V, 100 mole % inhibitor) is given as 15%. As for `CC(C)[C@H](NC(=O)[C@H](CCC(=O)O)NC(=O)[C@H](Cc1ccc(O)cc1)NC(=O)CNC(=O)[C@H](CO)NC(=O)[C@H](CC(=O)O)NC(=O)[C@H](Cc1c[nH]cn1)NC(=O)CC[C@@H](C)[C@H]1CC[C@H]2[C@@H]3[C@H](O)C[C@@H]4C[C@H](O)CC[C@]4(C)[C@H]3C[C@H](O)[C@]12C)C(=O)N[C@@H](Cc1c[nH]cn1)C(=O)N[C@@H](Cc1c[nH]cn1)C(N)=O` [PPI-331] (Cholyl-HDSGYEVHH-NH2), where the note is “Table III, 33 mole %”, the “Fold Increase in Lag Time” value is reported as 1.0 fold. Take `CC(C)C[C@H](NC(=O)[C@H](CCCCN)NC(=O)[C@H](CCC(N)=O)NC(=O)[C@H](Cc1c[nH]cn1)NC(=O)[C@H](Cc1c[nH]cn1)NC(=O)[C@@H](NC(=O)[C@H](CCC(=O)O)NC(=O)[C@H](Cc1ccc(O)cc1)NC(=O)CNC(=O)[C@H](CO)NC(=O)[C@H](CC(=O)O)NC(=O)[C@H](Cc1c[nH]cn1)NC(=O)CC[C@@H](C)[C@H]1CC[C@H]2[C@@H]3[C@H](O)C[C@@H]4C[C@H](O)CC[C@]4(C)[C@H]3C[C@H](O)[C@]12C)C(C)C)C(=O)N[C@H](C(=O)N[C@@H](Cc1ccccc1)C(=O)N[C@@H](Cc1ccccc1)C(N)=O)C(C)C` [PPI-296] (Cholyl-HDSGYEVHHQKLVFF-NH2): the “Fold Increase in Lag Time” value (Table III, 33 mole %) was determined as 1.8 fold.

Consider `CC(C)C[C@H](NC(=O)[C@H](CCCCN)NC(=O)[C@H](CCC(N)=O)NC(=O)CC[C@@H](C)[C@H]1CC[C@H]2[C@@H]3[C@H](O)C[C@@H]4C[C@H](O)CC[C@]4(C)[C@H]3C[C@H](O)[C@]12C)C(=O)N[C@H](C(=O)N[C@@H](Cc1ccccc1)C(=O)O)C(C)C` [PPI-366] (Cholyl-QKLVF-OH), for which the “Fold Increase in Lag Time” value by setting is: (Table IV, 10 mole %) 1.6 fold; (Table IV, 100 mole %) 3.1 fold. Under setting [1], the “ΔLag (ratio of lag time with test compound to lag time of control)” value is reported as 3.1. For the same molecule, under setting [2], the inhibition at 100 mol % is -23%.

As to `CC[C@H](C)[C@H](NC(=O)[C@H](C)NC(=O)CNC(=O)[C@H](CCCCN)NC(=O)[C@H](CC(N)=O)NC(=O)[C@H](CO)NC(=O)CCCC[C@@H]1SC[C@@H]2NC(=N)N[C@@H]21)C(=O)N[C@H](C(=O)NCC(=O)N[C@@H](CC(C)C)C(=O)N[C@@H](CCSC)C(=O)N[C@H](C(=O)NCC(=O)NCC(=O)N[C@H](C(=O)N[C@H](C(=O)O)C(C)C)C(C)C)C(C)C)[C@@H](C)CC` [PPI-287] (X3-SNKGAIIGLMVGGVV-OH), the “Fold Increase in Lag Time” value under setting [3] is given as 2.3 fold. Turning to `CC(C)C[C@H](NC(=O)[C@H](CCCCN)NC(=O)CCCC[C@@H]1SC[C@@H]2NC(=N)N[C@@H]21)C(=O)N[C@H](C(=O)N[C@@H](Cc1ccccc1)C(=O)N[C@@H](Cc1ccccc1)C(=O)O)C(C)C` [PPI-374, iminobiotinyl-Aβ16-20], the “Fold Increase in Lag Time” value (Table IV, 100 mole %) stood at 1.3 fold. For the same molecule, the “ΔLag (ratio of lag time with test compound to lag time of control)” value under setting [1] is 1.3. The inhibition at 100 mol % under setting [2] is 86%. `CC(=O)N[C@H]1[C@H]([C@H](O)[C@H](O)CO)OC(O)(C(=O)N[C@@H](CCCCN)C(=O)N[C@@H](CC(C)C)C(=O)N[C@H](C(=O)N[C@@H](Cc2ccccc2)C(=O)N[C@@H](Cc2ccccc2)C(=O)N[C@@H](C)C(=O)N[C@@H](CCC(=O)O)C(=O)N[C@@H](CC(=O)O)C(=O)N[C@H](C(=O)NCC(=O)N[C@@H](CO)C(=O)N[C@@H](CC(N)=O)C(=O)N[C@@H](CCCCN)C(=O)NCC(=O)N[C@@H](C)C(=O)O)C(C)C)C(C)C)C[C@@H]1O` (stereo partly shown) [PPI-276] (Ac-[X2]KLVFFAEDVGSNKGA-OH): the “Fold Increase in Lag Time” value under setting [3] was around 1 fold.

In the case of `CC(C)C[C@H](NC(=O)[C@H](CCCCN)NC(=O)[C@H](CCC(N)=O)NC(=O)[C@H](Cc1c[nH]cn1)NC(=O)[C@H](Cc1c[nH]cn1)NC(=O)[C@@H](NC(=O)[C@H](CCC(=O)O)NC(=O)[C@H](Cc1ccc(O)cc1)NC(=O)CNC(=O)[C@H](CO)NC(=O)[C@H](CC(=O)O)NC(=O)[C@H](Cc1c[nH]cn1)NC(=O)CCCC[C@@H]1SC[C@@H]2NC(=N)N[C@@H]21)C(C)C)C(=O)N[C@H](C(=O)N[C@@H](Cc1ccccc1)C(=O)N[C@@H](Cc1ccccc1)C(=O)O)C(C)C` [PPI-267, iminobiotinyl-Aβ6-20] (X3-HDSGYEVHHQKLVFF-OH), the “Fold Increase in Lag Time” value under setting [3] amounted to 1.6 fold. For `CC(C)C[C@H](NC(=O)[C@H](CCCCN)NC(=O)[C@H](CCC(N)=O)NC(=O)[C@H](Cc1c[nH]cn1)NC(=O)[C@H](Cc1c[nH]cn1)NC(=O)[C@@H](NC(=O)[C@H](CCC(=O)O)NC(=O)[C@H](Cc1ccc(O)cc1)NC(=O)CNC(=O)[C@H](CO)NC(=O)[C@H](CC(=O)O)NC(=O)[C@H](Cc1c[nH]cn1)NC(=O)CC[C@@H](C)[C@H]1CC[C@H]2[C@@H]3[C@H](O)C[C@@H]4C[C@H](O)CC[C@]4(C)[C@H]3C[C@H](O)[C@]12C)C(C)C)C(N)=O` [PPI-325] (Cholyl-HDSGYEVHHQKL-NH2), the “Fold Increase in Lag Time” value (Table III, 33 mole %) amounted to 1.8 fold. For the molecule `CC(=O)N[C@H]1[C@H]([C@H](O)[C@H](O)CO)OC(O)(C(=O)N[C@@H](Cc2c[nH]cn2)C(=O)N[C@@H](CC(=O)O)C(=O)N[C@@H](CO)C(=O)NCC(=O)N[C@@H](Cc2ccc(O)cc2)C(=O)N[C@@H](CCC(=O)O)C(=O)N[C@H](C(=O)N[C@@H](Cc2c[nH]cn2)C(=O)N[C@@H](Cc2c[nH]cn2)C(=O)N[C@@H](CCC(N)=O)C(=O)N[C@@H](CCCCN)C(=O)N[C@@H](CC(C)C)C(=O)N[C@H](C(=O)N[C@@H](Cc2ccccc2)C(=O)N[C@@H](Cc2ccccc2)C(=O)O)C(C)C)C(C)C)C[C@@H]1O` (stereo partly shown) [PPI-266] (Ac-[X2]HDSGYEVHHQKLVFF-OH), the “Fold Increase in Lag Time” value under setting [3] is 1.3 fold. Turning to `CC(C)C[C@H](NC(=O)[C@H](CCCCN)NC(=O)[C@H](CCC(N)=O)NC(=O)[C@H](Cc1c[nH]cn1)NC(=O)CC[C@@H](C)[C@H]1CC[C@H]2[C@@H]3[C@H](O)C[C@@H]4C[C@H](O)CC[C@]4(C)[C@H]3C[C@H](O)[C@]12C)C(=O)N[C@H](C(=O)N[C@@H](Cc1ccccc1)C(=O)N[C@@H](Cc1ccccc1)C(=O)O)C(C)C` [PPI-348, cholyl-Aβ14-20] (Cholyl-HQKLVFF-OH), the “Fold Increase in Lag Time” value (Table III, 33 mole %) was 2.0 fold. In addition, the inhibition at 33 mol % (Table V, 33 mol % inhibitor, read-out: % Inucl'n (percent reduction in maximum observed turbidity)) came out at 70%. Besides, the “ΔLag (ratio of lag time with test compound to lag time of control)” value (Table V, 33 mole % inhibitor) was 2.0. Take `CC[C@H](C)[C@H](NC(=O)[C@H](C)NC(=O)CNC(=O)[C@H](CCCCN)NC(=O)[C@H](CC(N)=O)NC(=O)[C@H](CO)NC(=O)CNC(=O)[C@@H](NC(=O)[C@H](CC(=O)O)NC(=O)[C@H](CCC(=O)O)NC(=O)[C@H](C)NC(=O)CC[C@@H](C)[C@H]1CC[C@H]2[C@@H]3[C@H](O)C[C@@H]4C[C@H](O)CC[C@]4(C)[C@H]3C[C@H](O)[C@]12C)C(C)C)C(=O)N[C@H](C(=O)NCC(=O)N[C@@H](CC(C)C)C(=O)N[C@@H](CCSC)C(=O)O)[C@@H](C)CC` [PPI-279] (Cholyl-AEDVGSNKGAIIGLM-OH): the “Fold Increase in Lag Time” value under setting [3] stood at 1.6 fold. Regarding `CC(C)C[C@H](NC(=O)[C@@H](N)CCCCN)C(=O)N[C@H](C(=O)N[C@@H](Cc1ccccc1)C(=O)N[C@@H](Cc1ccccc1)C(=O)O)C(C)C` [PPI-377, Aβ16-20], the inhibition at 100 mol % under setting [2] worked out at 0%. In the case of PPI-418: h-(Aic)-LVFFA-oh, the “% Inucl'n (percent reduction in maximum observed turbidity)” value (Table V, 33 mol % inhibitor) was 100** %. As for `CC(C)C[C@H](NC(=O)[C@H](CCCCN)NC(=O)[C@H](CCC(N)=O)NC(=O)[C@H](Cc1c[nH]cn1)NC(=O)[C@H](Cc1c[nH]cn1)NC(=O)[C@@H](NC(=O)[C@H](CCC(=O)O)NC(=O)[C@H](Cc1ccc(O)cc1)NC(=O)CNC(=O)[C@H](CO)NC(=O)[C@H](CC(=O)O)NC(=O)CC[C@@H](C)[C@H]1CC[C@H]2[C@@H]3[C@H](O)C[C@@H]4C[C@H](O)CC[C@]4(C)[C@H]3C[C@H](O)[C@]12C)C(C)C)C(=O)N[C@H](C(=O)N[C@@H](Cc1ccccc1)C(=O)N[C@@H](Cc1ccccc1)C(=O)O)C(C)C` [PPI-341, cholyl-Aβ7-20] (Cholyl-DSGYEVHHQKLVFF-OH), the “Fold Increase in Lag Time” value is, setting by setting: (Table III, 33 mole %) 2 fold; (Table III, 100 mole %) above 4.5 fold.
